Experimental data published in BigSolDB 2.1.

O=C1c2ccccc2-c2ccc(Br)cc21
solubility (mole fraction)
Settings	in 1,4-dioxane	in acetonitrile	in ethanol	in ethyl acetate	in isopropanol	in methanol	in methyl acetate	in n-butanol	in n-butyl acetate	in n-propanol
278.15 K	–	0.000793	0.000435	0.00515	0.000365	0.000214	0.00408	0.000924	0.00637	0.0006
283.15 K	0.0136	0.001	0.000546	0.00603	0.000477	0.000265	0.00517	0.00119	0.00757	0.000747
288.15 K	0.0167	0.00122	0.000674	0.00732	0.000604	0.000329	0.00608	0.00148	0.00911	0.000915
293.15 K	0.0199	0.00152	0.000831	0.00865	0.000765	0.00042	0.00738	0.0018	0.0113	0.00116
298.15 K	0.0241	0.00188	0.00101	0.0102	0.000969	0.000529	0.00882	0.00221	0.0136	0.00143
303.15 K	0.0284	0.00227	0.00123	0.012	0.0012	0.00066	0.0105	0.00268	0.016	0.00173
308.15 K	0.0334	0.00273	0.00146	0.0136	0.00148	0.000828	0.0123	0.00328	0.019	0.00208
313.15 K	0.0391	0.00327	0.00174	0.016	0.00183	0.00102	0.0144	0.00393	0.0221	0.0025
318.15 K	0.0455	0.00389	0.00205	0.0183	0.00224	0.00127	0.0168	0.00466	0.0259	0.00297
323.15 K	0.0527	0.0046	0.00239	0.0212	0.0027	0.00157	0.0193	0.00553	0.03	0.0035
